Measured values as given in patent US20200216563A1, “HDAC6 AND PROTEIN AGGREGATION” (Friedrich Miescher Institute for Biomedical Research, priority 2017, published 2020).

Legend:
[1] = test system: DDX3X-K118Ac; test: DDX3X acetylation in HEK293T cells expressing CBP or p300 (immunoprecipitation and immunoblotting); assay type: cell-based, human; details: for DDX3X-K118Ac signal after treating the cells with HDAC inhibitors: HEK293T cells transiently expressing CBP, DDX3X-K118Ac-specific antibody
Description: HEK293T cells were transfected with Lipofectamine 2000 (Life Technologies) or FuGENE HD (Promega), and MEF cells were transfected with 4D-Nucleofector™ System (Lonza), following manufacturer's protocol.
Cells were washed by ice-cold PBS and lysed in Triton lysis buffer (50 mM Tris-HCl, pH8.0, 150 mM sodium chloride, 1 mM EDTA, 0.1% TritonX-100 and Complete EDTA-free protease inhibitors (Roche)) for analysis. To detect protein acetylation, 0.2 μM Trichostatin A and 5 mM nicotinamide was added to PBS for wash, and 10 μM Trichostatin A, 10 mM nicotinamide, 50 mM sodium butyrate were added to Triton lysis buffer. To detect protein phosphorylation, Pierce Protease and Phosphatase Inhibitor Mini Tablets (Thermo scientific) were added to Triton lysis buffer instead of Complete EDTA-free protease inhibitors. Five hundred μg protein lysates were incubated with the specific antibody for overnight at 4° C., and immunoprecipitated with Dynabeads ProteinG (invitrogen) for 1 h at 4° C. Samples were boiled for 10 min in SDS-PAGE sample buffer, and separated with 4-12% NuPAGE gels (invitrogen). […] For inhibition of HDACs in cells, concentration of each HDAC inhibitor was as described in {Scholz, 2015 #851}.
(§1) To investigate whether DDX3X-K118Ac is a direct target site of HDAC6, the inventors performed a biochemical assay using purified components. […] Next, they tested the acetylation status of DDX3X in cells. It has been shown that the stoichiometry of acetylation is generally low {Weinert, 2014 #452}, making it difficult to detect. The inventors therefore attempted to enhance the level of acetylation by expressing different HATs. To test which HAT(s) can act on DDX3X, expression vectors for PCAF, CBP, Tip60 or p300 were individually transfected into HEK293T cells and cellular extracts were analyzed by immunoprecipitation and immunoblotting.
Different deacetylases often redundantly target the same lysine acetylation site on a target protein. […] To test whether the DDX3X-K118 deacetylation is specific for HDAC6, the inventors transiently expressed CBP in HEK293T cells and assessed the DDX3X-K118Ac signal after treating the cells with several HDAC inhibitors.

[2] = target: T1, Danio rerio HDAC6 CD1-CD2 (a.a.40-831) (Danio rerio, UniProt F8W4B7); test: In vitro HDAC6 deacetylation assay with DDX3X-K118 acetylated peptide; assay type: biochemical; details: 1 μM Trichostatin A, 3 hours, 37° C., HPLC UV 214 nm
T1 construct: Danio rerio HDAC6 CD1-CD2 (a.a.40-831) was expressed in Sf9 insect cells; made in house; host or cells: Sf9 insect cells
T1 sequence (F8W4B7 40-831): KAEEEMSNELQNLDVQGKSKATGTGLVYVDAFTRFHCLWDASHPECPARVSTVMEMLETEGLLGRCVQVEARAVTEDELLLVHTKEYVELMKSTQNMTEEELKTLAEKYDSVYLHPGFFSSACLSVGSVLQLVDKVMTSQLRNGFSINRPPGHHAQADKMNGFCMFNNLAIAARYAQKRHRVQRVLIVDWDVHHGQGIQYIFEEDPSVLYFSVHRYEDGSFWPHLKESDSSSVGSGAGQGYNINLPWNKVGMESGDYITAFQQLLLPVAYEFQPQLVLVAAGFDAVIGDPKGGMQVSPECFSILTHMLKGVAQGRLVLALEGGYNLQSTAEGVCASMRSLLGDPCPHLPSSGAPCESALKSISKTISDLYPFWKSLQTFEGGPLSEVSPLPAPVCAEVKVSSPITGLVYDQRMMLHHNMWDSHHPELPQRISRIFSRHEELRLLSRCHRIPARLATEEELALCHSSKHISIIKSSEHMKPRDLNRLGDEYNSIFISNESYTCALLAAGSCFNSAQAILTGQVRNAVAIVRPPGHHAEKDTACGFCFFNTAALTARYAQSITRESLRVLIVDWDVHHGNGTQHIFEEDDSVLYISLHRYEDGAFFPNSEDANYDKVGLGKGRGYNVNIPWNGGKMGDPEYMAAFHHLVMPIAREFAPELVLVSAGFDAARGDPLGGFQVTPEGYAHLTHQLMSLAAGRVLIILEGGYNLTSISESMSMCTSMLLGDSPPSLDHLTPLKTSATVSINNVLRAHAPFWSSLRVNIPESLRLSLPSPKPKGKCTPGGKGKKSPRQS
From the text: as §1

[3] = test system: DDX3X-K118 acetylation; test: DDX3X-K118 acetylation under arsenite-induced oxidative stress (immunoblotting); assay type: cell-based

In the case of `CCCCOc1ccc(CC(=O)NO)cc1` [Bufexamac], the “DDX3X-K118Ac signal after treating the cells with HDAC inhibitors” value (“DDX3X-K118Ac signal … with HDAC inhibitors” below) [1] is reported as “increased”.
In the case of `CC(/C=C/C(=O)NO)=C\[C@@H](C)C(=O)c1ccc(N(C)C)cc1` [Trichostatin A], the “deacetylation of the DDX3X-K118Ac peptide by purified tandem HDAC6 catalytic domains” value [2] is reported as “inhibited”.
`O=C(CCCCCCC(=O)Nc1ccc([C@H]2O[C@@H](CSc3nc(-c4ccccc4)c(-c4ccccc4)o3)C[C@@H](c3ccc(CO)cc3)O2)cc1)NO` [Tubacin] was tested, and the “DDX3X-K118 acetylation after arsenite treatment plus HDAC6 inhibitor” value ([3]; WT cells treated with arsenite and also with Tubacin) was “further increased”, the “acetylation level of endogenous or overexpressed DDX3X” value ([1]; HEK293T cells transfected with CBP or p300 (with or without DDX3X construct), treatment of the cells with inhibitor) was “increased even further” and the “DDX3X-K118Ac signal … with HDAC inhibitors” value [1] was “increased”.
With `CN1CCc2c(c3ccccc3n2Cc2ccc(C(=O)NO)cc2)C1` [Tubastatin A] the “DDX3X-K118Ac signal … with HDAC inhibitors” value [1] was “increased”.
With `NC(=O)c1cccnc1` [nicotinamide] the “DDX3X-K118Ac signal … with HDAC inhibitors” value [1] was “neither nicotinamide, a sirtuin deacetylase inhibitor, nor sodium butyrate, a class I HDAC inhibitor, altered the acetylation status”.
For `CCCC(=O)[O-].[Na+]` [sodium butyrate], the “DDX3X-K118Ac signal … with HDAC inhibitors” value [1] was “neither nicotinamide, a sirtuin deacetylase inhibitor, nor sodium butyrate, a class I HDAC inhibitor, altered the acetylation status”.
In the case of sodium arsenite, the “DDX3X-K118 acetylation after arsenite treatment” value [3] is reported as “increased”.
